{"source": "ChEMBL document CHEMBL4024706", "about": "(Eur J Med Chem, 2017)", "key": {"[1]": {"biological_target": "Tyrosine-protein kinase BTK (Homo sapiens, UniProt Q06187)", "sequence (Q06187 whole entry)": "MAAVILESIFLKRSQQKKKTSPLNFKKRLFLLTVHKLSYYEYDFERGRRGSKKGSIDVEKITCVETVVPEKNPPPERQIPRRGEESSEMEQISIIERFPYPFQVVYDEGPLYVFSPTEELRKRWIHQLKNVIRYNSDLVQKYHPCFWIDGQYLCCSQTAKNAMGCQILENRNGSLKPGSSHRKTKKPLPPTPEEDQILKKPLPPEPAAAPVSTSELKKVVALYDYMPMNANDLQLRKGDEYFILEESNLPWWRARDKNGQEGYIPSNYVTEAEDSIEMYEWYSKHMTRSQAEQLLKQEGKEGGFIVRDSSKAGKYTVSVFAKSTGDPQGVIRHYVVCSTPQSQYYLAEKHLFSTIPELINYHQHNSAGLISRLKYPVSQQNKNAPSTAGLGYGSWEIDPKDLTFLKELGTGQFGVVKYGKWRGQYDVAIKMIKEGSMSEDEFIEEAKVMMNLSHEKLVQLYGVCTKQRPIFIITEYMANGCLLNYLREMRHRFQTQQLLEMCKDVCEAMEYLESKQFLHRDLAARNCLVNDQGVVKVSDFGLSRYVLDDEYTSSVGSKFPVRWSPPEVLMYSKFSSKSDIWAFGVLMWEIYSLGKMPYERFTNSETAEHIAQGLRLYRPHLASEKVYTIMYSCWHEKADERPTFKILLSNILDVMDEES", "assay": "Reversible inhibition of full length recombinant human N-terminal His tagged […] expressed in baculovirus infected Sf9 insect cells using poly (Glu,Tyr)4:1 as substrate pretreated for 2 to 60 mins followed by substrate addition after 1 hr by ADP-Glo luminescence assay"}, "Ramos": {"system": "Ramos", "assay": "Growth inhibition of human Ramos cells", "format": "functional", "conditions": "Homo sapiens, Ramos"}, "[2]": {"biological_target": "NUAK family SNF1-like kinase 1 (Homo sapiens) (UniProt O60285)", "sequence (O60285 whole entry, the tested form may be a part)": "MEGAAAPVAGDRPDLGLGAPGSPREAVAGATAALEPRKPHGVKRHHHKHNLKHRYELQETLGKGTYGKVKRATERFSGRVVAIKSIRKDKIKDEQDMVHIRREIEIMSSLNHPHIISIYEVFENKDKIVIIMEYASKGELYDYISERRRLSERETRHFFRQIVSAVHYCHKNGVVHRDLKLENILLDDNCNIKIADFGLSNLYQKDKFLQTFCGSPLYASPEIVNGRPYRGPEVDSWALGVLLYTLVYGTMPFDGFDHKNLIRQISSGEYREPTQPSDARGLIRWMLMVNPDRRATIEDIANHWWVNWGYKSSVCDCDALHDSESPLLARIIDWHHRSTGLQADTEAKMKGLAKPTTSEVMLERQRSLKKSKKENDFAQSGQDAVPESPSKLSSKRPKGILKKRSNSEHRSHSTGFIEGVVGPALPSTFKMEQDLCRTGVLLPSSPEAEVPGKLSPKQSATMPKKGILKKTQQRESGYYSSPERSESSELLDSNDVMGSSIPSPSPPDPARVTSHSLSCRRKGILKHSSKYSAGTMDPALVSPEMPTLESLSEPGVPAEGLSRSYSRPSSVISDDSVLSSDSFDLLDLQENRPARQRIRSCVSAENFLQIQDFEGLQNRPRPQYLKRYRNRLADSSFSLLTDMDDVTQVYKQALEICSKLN", "assay": "Inhibition of wild-type human partial length ARK5 (E25 to I332 residues) expressed in bacterial expression system assessed as residual activity at 1 uM by Kinomescan method relative to control"}, "[3]": {"biological_target": "Cyclin-dependent kinase 4 (Homo sapiens) (UniProt P11802)", "assay": "Inhibition of wild-type human full length CDK4 (M1 to E303 residues) expressed in mammalian expression system assessed as residual activity at 1 uM by Kinomescan method relative to control"}, "[4]": {"biological_target": "Fibroblast growth factor receptor 3 (Homo sapiens) (UniProt P22607)", "assay": "Inhibition of wild-type human partial length FGFR3 (R442 to S771 residues) expressed in bacterial expression system assessed as residual activity at 1 uM by Kinomescan method relative to control"}, "[5]": {"biological_target": "Serine/threonine-protein kinase ICK (Homo sapiens) (UniProt Q9UPZ9)", "sequence (Q9UPZ9 whole entry, the tested form may be a part)": "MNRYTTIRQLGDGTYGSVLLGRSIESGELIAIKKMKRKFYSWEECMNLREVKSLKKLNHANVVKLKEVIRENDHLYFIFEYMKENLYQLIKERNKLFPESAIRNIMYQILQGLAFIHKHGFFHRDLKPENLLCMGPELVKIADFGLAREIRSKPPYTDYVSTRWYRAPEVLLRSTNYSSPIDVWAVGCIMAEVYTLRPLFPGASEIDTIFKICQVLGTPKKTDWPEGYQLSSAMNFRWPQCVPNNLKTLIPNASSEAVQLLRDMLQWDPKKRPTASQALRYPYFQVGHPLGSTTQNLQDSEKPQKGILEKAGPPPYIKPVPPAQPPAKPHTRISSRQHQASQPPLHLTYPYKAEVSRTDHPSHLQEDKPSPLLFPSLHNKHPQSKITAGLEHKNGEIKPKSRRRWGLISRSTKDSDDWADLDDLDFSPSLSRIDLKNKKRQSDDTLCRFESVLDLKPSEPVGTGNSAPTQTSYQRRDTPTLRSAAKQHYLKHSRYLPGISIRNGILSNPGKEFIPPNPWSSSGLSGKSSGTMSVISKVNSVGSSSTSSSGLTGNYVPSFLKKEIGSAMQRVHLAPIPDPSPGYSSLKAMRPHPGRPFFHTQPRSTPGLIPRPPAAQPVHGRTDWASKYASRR", "assay": "Inhibition of wild-type human partial length ICK (M1 to P314 residues) expressed in mammalian expression system assessed as residual activity at 1 uM by Kinomescan method relative to control"}, "[6]": {"biological_target": "Mitogen-activated protein kinase 8 (Homo sapiens) (UniProt P45983)", "assay": "Inhibition of wild-type human full length JNK1 (M1 to Q384 residues) expressed in mammalian expression system assessed as residual activity at 1 uM by Kinomescan method relative to control"}, "[7]": {"system": "Leucine-rich repeat serine/threonine-protein kinase 2 (Homo sapiens), Q5S007 [G2019S]", "assay": "Inhibition of human partial length LRRK2 G2019S mutant (H970 to E2527 residues) expressed in mammalian expression system assessed as residual activity at 1 uM by Kinomescan method relative to control"}, "[8]": {"biological_target": "Mitogen-activated protein kinase kinase kinase 2 (Homo sapiens) (UniProt Q9Y2U5)", "assay": "Inhibition of wild-type human partial length MAP3K2 (S315 to H619 residues) expressed in mammalian expression system assessed as residual activity at 1 uM by Kinomescan method relative to control"}, "[9]": {"biological_target": "Mitogen-activated protein kinase kinase kinase kinase 5 (Homo sapiens) (UniProt Q9Y4K4)", "assay": "Inhibition of wild-type human partial length MAP4K5 (M1 to P297 residues) expressed in bacterial expression system assessed as residual activity at 1 uM by Kinomescan method relative to control"}, "[10]": {"biological_target": "Dual specificity mitogen-activated protein kinase kinase 5 (Homo sapiens) (UniProt Q13163)", "assay": "Inhibition of wild-type human partial length MEK5 (L98 to P448 residues) expressed in mammalian expression system assessed as residual activity at 1 uM by Kinomescan method relative to control"}, "[11]": {"system": "Hepatocyte growth factor receptor (Homo sapiens), P08581 [M1250T]", "assay": "Inhibition of human partial length MET M1250T mutant (D1010 to S1367 residues) expressed in bacterial expression system assessed as residual activity at 1 uM by Kinomescan method relative to control"}, "[12]": {"biological_target": "Myosin light chain kinase family member 4 (Homo sapiens) (UniProt Q86YV6)", "assay": "Inhibition of wild-type human partial length MYLK4 (V79 to S380 residues) expressed in bacterial expression system assessed as residual activity at 1 uM by Kinomescan method relative to control"}, "[13]": {"biological_target": "Cyclin-dependent kinase 17 (Homo sapiens) (UniProt Q00537)", "assay": "Inhibition of wild-type human full length PCTK2 (M1 to F523 residues) expressed in bacterial expression system assessed as residual activity at 1 uM by Kinomescan method relative to control"}, "[14]": {"biological_target": "3-phosphoinositide-dependent protein kinase 1 (Homo sapiens) (UniProt O15530)", "assay": "Inhibition of wild-type human full length PDPK1 (M1 to Q556 residues) expressed in bacterial expression system assessed as residual activity at 1 uM by Kinomescan method relative to control"}, "[15]": {"biological_target": "Phosphatidylinositol 4,5-bisphosphate 3-kinase catalytic subunit alpha isoform (Homo sapiens) (UniProt P42336)", "assay": "Inhibition of wild-type human partial length PIK3CA (R108 to N1068 residues) expressed in mammalian expression system assessed as residual activity at 1 uM by Kinomescan method relative to control"}, "[16]": {"biological_target": "Phosphatidylinositol 4-phosphate 5-kinase type-1 gamma (Homo sapiens) (UniProt O60331)", "sequence (O60331 whole entry, the tested form may be a part)": "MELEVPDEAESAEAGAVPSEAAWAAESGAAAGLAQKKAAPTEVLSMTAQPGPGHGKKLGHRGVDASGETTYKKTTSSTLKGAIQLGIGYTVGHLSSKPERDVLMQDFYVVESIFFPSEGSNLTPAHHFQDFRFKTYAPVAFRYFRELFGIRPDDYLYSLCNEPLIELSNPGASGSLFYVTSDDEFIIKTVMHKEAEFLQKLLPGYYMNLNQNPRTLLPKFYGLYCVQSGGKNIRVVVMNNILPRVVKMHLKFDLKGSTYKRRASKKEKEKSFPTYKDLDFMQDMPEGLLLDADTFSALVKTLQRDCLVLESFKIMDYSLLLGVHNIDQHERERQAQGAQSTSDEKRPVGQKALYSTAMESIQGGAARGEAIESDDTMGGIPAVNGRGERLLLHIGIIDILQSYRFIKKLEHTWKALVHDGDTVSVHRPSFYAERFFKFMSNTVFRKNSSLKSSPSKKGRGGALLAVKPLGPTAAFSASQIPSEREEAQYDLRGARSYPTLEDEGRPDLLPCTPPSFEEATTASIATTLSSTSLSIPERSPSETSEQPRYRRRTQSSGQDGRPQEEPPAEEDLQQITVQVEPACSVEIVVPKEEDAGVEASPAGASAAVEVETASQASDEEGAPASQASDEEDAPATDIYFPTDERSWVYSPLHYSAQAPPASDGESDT", "assay": "Inhibition of wild-type human partial length PIP5K1C (M1 to T668 residues) expressed in mammalian expression system assessed as residual activity at 1 uM by Kinomescan method relative to control"}, "[17]": {"biological_target": "Serine/threonine-protein kinase PLK1 (Homo sapiens) (UniProt P53350)", "assay": "Inhibition of wild-type human partial length PLK1 (A33 to F325 residues) expressed in mammalian expression system assessed as residual activity at 1 uM by Kinomescan method relative to control"}, "[18]": {"biological_target": "Protein kinase C delta type (Homo sapiens) (UniProt Q05655)", "assay": "Inhibition of wild-type human partial length PRKCD (Q328 to D676 residues) expressed in bacterial expression system assessed as residual activity at 1 uM by Kinomescan method relative to control"}, "[19]": {"biological_target": "Serine/threonine-protein kinase D2 (Homo sapiens) (UniProt Q9BZL6)", "assay": "Inhibition of wild-type human partial length PRKD2 (A519 to E838 residues) expressed in bacterial expression system assessed as residual activity at 1 uM by Kinomescan method relative to control"}, "[20]": {"system": "Proto-oncogene tyrosine-protein kinase receptor Ret (Homo sapiens), P07949 [M918T]", "sequence (P07949 whole entry M918T, the tested form may be a part)": "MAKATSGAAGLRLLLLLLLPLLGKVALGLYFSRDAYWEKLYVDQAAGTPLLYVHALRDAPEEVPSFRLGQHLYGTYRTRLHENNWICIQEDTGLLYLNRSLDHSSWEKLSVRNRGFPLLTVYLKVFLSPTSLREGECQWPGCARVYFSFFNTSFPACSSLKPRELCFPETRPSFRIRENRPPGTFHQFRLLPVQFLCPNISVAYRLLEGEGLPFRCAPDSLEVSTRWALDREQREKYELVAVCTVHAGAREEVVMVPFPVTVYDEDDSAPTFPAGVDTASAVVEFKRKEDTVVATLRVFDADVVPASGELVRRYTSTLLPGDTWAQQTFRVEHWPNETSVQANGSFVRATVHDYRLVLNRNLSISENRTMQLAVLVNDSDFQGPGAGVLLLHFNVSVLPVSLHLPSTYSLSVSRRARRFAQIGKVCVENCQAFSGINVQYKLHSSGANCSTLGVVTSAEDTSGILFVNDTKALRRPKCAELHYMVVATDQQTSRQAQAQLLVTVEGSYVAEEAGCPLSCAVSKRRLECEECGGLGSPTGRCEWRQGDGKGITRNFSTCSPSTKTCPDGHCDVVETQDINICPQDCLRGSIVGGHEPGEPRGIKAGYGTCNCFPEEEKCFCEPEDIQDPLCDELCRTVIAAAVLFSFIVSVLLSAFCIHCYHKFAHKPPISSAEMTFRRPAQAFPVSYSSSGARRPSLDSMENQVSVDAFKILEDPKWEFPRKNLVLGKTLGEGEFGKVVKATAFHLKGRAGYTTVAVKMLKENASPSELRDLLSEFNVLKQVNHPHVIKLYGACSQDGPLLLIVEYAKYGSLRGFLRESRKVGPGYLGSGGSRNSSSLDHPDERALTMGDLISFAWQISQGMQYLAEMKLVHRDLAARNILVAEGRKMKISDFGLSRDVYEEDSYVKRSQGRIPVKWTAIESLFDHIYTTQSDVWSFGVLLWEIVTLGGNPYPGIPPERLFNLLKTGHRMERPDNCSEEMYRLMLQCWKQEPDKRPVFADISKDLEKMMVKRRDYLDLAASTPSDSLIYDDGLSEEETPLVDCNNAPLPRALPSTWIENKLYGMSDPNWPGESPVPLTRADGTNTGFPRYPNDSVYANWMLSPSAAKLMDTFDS", "assay": "Inhibition of human partial length RET M918T mutant (E713 to D1014 residues) expressed in bacterial expression system assessed as residual activity at 1 uM by Kinomescan method relative to control"}, "[21]": {"biological_target": "Ribosomal protein S6 kinase alpha-4 (Homo sapiens) (UniProt O75676)", "assay": "Inhibition of wild-type human partial length N-terminal RPS6KA4 kinase domain 1 expressed in bacterial expression system assessed as residual activity at 1 uM by Kinomescan method relative to control"}, "[22]": {"biological_target": "Ribosomal protein S6 kinase alpha-1 (Homo sapiens) (UniProt Q15418)", "assay": "Inhibition of wild-type human partial length N-terminal RSK1 Kinase domain 1 (M1 to E388 residues) expressed in bacterial expression system assessed as residual activity at 1 uM by Kinomescan method relative to control"}, "[23]": {"biological_target": "Tyrosine-protein kinase SYK (Homo sapiens) (UniProt P43405)", "assay": "Inhibition of wild-type human partial length SYK (D354 to N635 residues) expressed in bacterial expression system assessed as residual activity at 1 uM by Kinomescan method relative to control"}, "[24]": {"biological_target": "Non-receptor tyrosine-protein kinase TYK2 (Homo sapiens) (UniProt P29597)", "sequence (P29597 whole entry, the tested form may be a part)": "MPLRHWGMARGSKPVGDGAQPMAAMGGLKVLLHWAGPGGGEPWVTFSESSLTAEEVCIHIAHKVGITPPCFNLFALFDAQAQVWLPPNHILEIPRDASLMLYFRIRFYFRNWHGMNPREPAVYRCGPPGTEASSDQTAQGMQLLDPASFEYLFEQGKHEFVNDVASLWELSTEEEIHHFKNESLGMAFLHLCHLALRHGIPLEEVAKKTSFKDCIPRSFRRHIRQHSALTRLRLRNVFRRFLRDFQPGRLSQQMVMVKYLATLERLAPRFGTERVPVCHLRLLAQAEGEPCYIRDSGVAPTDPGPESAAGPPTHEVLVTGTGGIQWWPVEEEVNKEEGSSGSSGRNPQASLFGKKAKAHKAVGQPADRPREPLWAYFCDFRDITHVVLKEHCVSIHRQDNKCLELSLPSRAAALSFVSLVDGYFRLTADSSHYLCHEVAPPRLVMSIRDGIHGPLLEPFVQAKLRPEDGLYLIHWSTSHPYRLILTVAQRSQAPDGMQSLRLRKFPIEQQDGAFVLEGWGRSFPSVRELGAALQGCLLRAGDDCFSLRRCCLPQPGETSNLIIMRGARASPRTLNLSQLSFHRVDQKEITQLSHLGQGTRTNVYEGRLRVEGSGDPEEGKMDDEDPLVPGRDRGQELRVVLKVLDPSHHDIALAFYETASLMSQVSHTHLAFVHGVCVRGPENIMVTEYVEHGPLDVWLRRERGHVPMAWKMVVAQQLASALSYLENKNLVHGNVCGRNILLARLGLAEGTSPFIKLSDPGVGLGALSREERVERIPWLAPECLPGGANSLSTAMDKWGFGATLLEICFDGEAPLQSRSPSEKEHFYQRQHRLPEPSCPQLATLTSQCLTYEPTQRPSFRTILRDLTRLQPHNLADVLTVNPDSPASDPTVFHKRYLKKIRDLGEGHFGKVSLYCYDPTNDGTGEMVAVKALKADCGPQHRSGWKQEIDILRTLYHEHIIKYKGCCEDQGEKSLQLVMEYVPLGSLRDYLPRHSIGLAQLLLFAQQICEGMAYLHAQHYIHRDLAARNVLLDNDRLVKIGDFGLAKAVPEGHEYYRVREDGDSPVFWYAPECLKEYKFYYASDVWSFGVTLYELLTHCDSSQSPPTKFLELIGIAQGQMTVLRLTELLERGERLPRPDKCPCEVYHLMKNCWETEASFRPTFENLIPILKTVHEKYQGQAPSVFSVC", "assay": "Inhibition of wild-type human partial length TYK2 JH2 pseudokinase domain (G556 to D888 residues) expressed in mammalian expression system assessed as residual activity at 1 uM by Kinomescan method relative to control"}}}
{"smiles": "C=CC(=O)Nc1cc(Nc2cc(-c3cccc(NC(=O)c4ccc(C(C)(C)C)cc4)c3C)cn(C)c2=O)ccc1C(=O)N1CCOCC1", "values": [{"measurement": "Ki", "setting": "[1]", "value": 0.0089, "unit": "µM"}, {"measurement": "GI50", "setting": "Ramos", "value": 3.5, "unit": "µM"}, {"measurement": "Activity", "setting": "[2]", "value": 100, "unit": "%"}, {"measurement": "Activity", "setting": "[3]", "value": 100, "unit": "%"}, {"measurement": "Activity", "setting": "[4]", "value": 89, "unit": "%"}, {"measurement": "Activity", "setting": "[5]", "value": 100, "unit": "%"}, {"measurement": "Activity", "setting": "[6]", "value": 100, "unit": "%"}, {"measurement": "Activity", "setting": "[7]", "value": 58, "unit": "%"}, {"measurement": "Activity", "setting": "[8]", "value": 89, "unit": "%"}, {"measurement": "Activity", "setting": "[9]", "value": 100, "unit": "%"}, {"measurement": "Activity", "setting": "[10]", "value": 98, "unit": "%"}, {"measurement": "Activity", "setting": "[11]", "value": 98, "unit": "%"}, {"measurement": "Activity", "setting": "[12]", "value": 88, "unit": "%"}, {"measurement": "Activity", "setting": "[13]", "value": 100, "unit": "%"}, {"measurement": "Activity", "setting": "[14]", "value": 90, "unit": "%"}, {"measurement": "Activity", "setting": "[15]", "value": 100, "unit": "%"}, {"measurement": "Activity", "setting": "[16]", "value": 100, "unit": "%"}, {"measurement": "Activity", "setting": "[17]", "value": 100, "unit": "%"}, {"measurement": "Activity", "setting": "[18]", "value": 96, "unit": "%"}, {"measurement": "Activity", "setting": "[19]", "value": 100, "unit": "%"}, {"measurement": "Activity", "setting": "[20]", "value": 100, "unit": "%"}, {"measurement": "Activity", "setting": "[21]", "value": 97, "unit": "%"}, {"measurement": "Activity", "setting": "[22]", "value": 87, "unit": "%"}, {"measurement": "Activity", "setting": "[23]", "value": 92, "unit": "%"}, {"measurement": "Activity", "setting": "[24]", "value": 86, "unit": "%"}]}
